Measurements as given in patent US11345659B2, “Pipecolic esters for inhibition of the proteasome” (THE BOARD OF REGENTS OF THE UNIVERSY OF TEXAS SYSTEM, priority 2018, dated 2022).
“Also recorded” adds a separate entry of the source.

Assays:
26 S proteasome = biological target: T1, 26 S proteasome (Homo sapiens, UniProt P25787+P25789); assay: 26 S proteasome challenged with mixture of three substrates (surrogate proteinase assay); format: biochemical; details: mixture of ChT-L, T-L and Casp-L substrates, 33.3 μM each; read-out: IC50, 26 S proteasome with substrates for all three peptidases
T1 construct: purified from erythrocytes; purchased Enzo Life Sciences, Inc. (Farmingdale, N.Y.); host or cells: human erythrocytes
Protocol: (§1) Human housekeeping 20 S and 26 S and complexes purified from erythrocytes were purchased from Enzo Life Sciences, Inc. (Farmingdale, N.Y.). The 1 mg/ml stock 20 S proteasome was diluted to 0.2 mg/ml working solution in 50 mM Tris/HCl, pH 8 containing 20% glycerol (dilution buffer). For the 26 S proteasome stock, the dilution buffer was supplemented with 2 mM ATP, 1 mM MgCl2, and 1 mM DTT (dithiothreitol). The ChT-L peptidase activity was measured as arbitrary intensity units of fluorescence emitted by 7-amino-4-methylcoumarin (AMC) released from the canonical model peptide substrate succinyl-LeuLeuValTyr-methylcoumarin (SucLLVY-MCA; Bachem Bioscience Inc., Philadelphia, Pa.), used at concentration of 100 μM. Free AMC (Sigma-Aldrich, St. Louis, Mo.) was used as the standard. The Rpt5 C-terminal peptide was synthesized (standard solid-phase peptide chemistry) and purified to at least 98% purity by GenScript (Piscataway, N.J.). The Rpt5 peptide and the peptide substrate were dissolved in dimethylsulfoxide (DMSO) and such stock solutions were stored at −20° C. The total concentration of DMSO in final reaction mixtures never exceeded 3% (vol/vol).
The reaction was carried out in 96-well plates, in 100 μL of reaction mixture, for 1 hour at 37° C. In the case of 20 S proteasome, the reaction mixture consisted of 45 mM Tris/HCl, pH 8, 100 mM KCl with premixed 10 μM Rpt5 peptide and 100 μM Suc-LLVY-MCA, to which 200 ng (nearly […]) of proteasome and desired concentration of tested compounds in 1 μL of DMSO were added. […] The reaction rates were calculated from a linear segment of kinetic curves constructed from measurements in 1-minutes intervals (Fluoroskan Ascent plate reader; Thermo Fisher Scientific Inc., Waltham, Mass.). Reaction rates were calculated using a linear fit executed by Slope Analyzer and Enzyme Kinetics applications launched within Origin Pro 2017 (OriginLab). […]

[1] = biological target: T2, 20 S human housekeeping proteasome (Homo sapiens, UniProt P25787+P25789); assay: ChT-L peptidase activity of 20 S proteasome activated with Rpt5 peptide; format: biochemical; details: ChT-L, Suc-LLVY-AMC substrate, 20 S activated with Rpt5 peptide; read-out: IC50
T2 construct: purified from erythrocytes; purchased Enzo Life Sciences, Inc. (Farmingdale, N.Y.); host or cells: human erythrocytes
Protocol: as §1
The reaction was carried out in 96-well plates, in 100 μL of reaction mixture, for 1 hour at 37° C. In the case of 20 S proteasome, the reaction mixture consisted of 45 mM Tris/HCl, pH 8, 100 mM KCl with premixed 10 μM Rpt5 peptide and 100 μM Suc-LLVY-MCA, to which 200 ng (nearly […]) of proteasome and desired concentration of tested compounds in 1 μL of DMSO were added. To test the activity of 26 S proteasome under conditions challenging coordination of the three pairs of peptidase active centers, a mixture of three canonical substrates specific for the ChT-L (SucLLVY-MCA), trypsin-like (T-L; BocLRR-MCA) and caspase-like (Casp-L; Z-LLE-MCA) was used with each of the substrates at 33.3 μM (100 μM of the total substrate concentration). The reaction mixture in this case consisted of 50 mM Tris/HCl, pH 8, 20 mM NaCl, premixed with the substrates and 2 mM ATP, to which 200 ng (nearly 0.1 nmol) of the 26 S working solution and desired concentration of tested compounds in 0.5 μL of DMSO were added. The reaction rates were calculated from a linear segment of kinetic curves constructed from measurements in 1-minutes intervals (Fluoroskan Ascent plate reader; Thermo Fisher Scientific Inc., Waltham, Mass.). Reaction rates were calculated using a linear fit executed by Slope Analyzer and Enzyme Kinetics applications launched within Origin Pro 2017 (OriginLab). Specific activity of the control 20 S proteasome activated with the Rpt5 peptide was in the range of 1.4 to 2.3 nanomoles of AMC product released by 1 mg of 20 S per second (1.95±0.24; n=18). Specific activity of the control 26 S proteasome challenged with three substrates reached on average 0.28±0.06 nanomoles of AMC product released by 1 mg of the enzyme per second (n=6). For comparison, degradation of the canonical Suc-LLVY-MCA substrate by the control 26 S proteasome preceded with a rate in the range of 0.6-0.8 nanomoles of AMC released per mg of the enzyme per second. The data are presented as mean±SD or as a representative set from at least 3 independent experiments.
The compounds were evaluated using the 20 S human housekeeping proteasome. It was activated with the Rpt5 derived 10-residue peptide that contains the C-terminal HbYX (hydrophobic-Tyr-any AA) motif activating the proteasome in trans and to some extend mimic the activation by the 19 S regulatory particle (Osmulski and Gaczynska (2013) Molecular pharmacology 84: 104-113; Smith et al. (2006) J. Struct. Biol. 156: 72-83; Smith et al. (2007) Mol. Cell 27: 731-744). Proteolytic activity was monitored over time using a fluorogenic peptide substrate specific for the chymotrypsin-like active center (ChT-L, Suc-LLVY-AMC) in the presence of a concentration range of the inhibitors. […]

[2] = test system: Human multiple myeloma RPMI 8226 cells; assay: Proliferation of RPMI 8226 cells, live cell count by Trypan Blue exclusion; format: cell-based; details: RPMI 8226, 0.2 μM, 24 hours, read-out: cell proliferation, % of control
Protocol: Human multiple myeloma RPMI 8226 cells were purchased from American Type Culture Collection (ATCC; Manassas, Va.) and cultured according to ATCC specifications. […] The content of live cells was determined by excluding the Trypan Blue-stained cells. The cells were counted with TC20 Automated Cell Counter (Bio-Rad Laboratories, Hercules, Calif.) and EC50 was calculated with Origin Pro 2017 (OriginLab Corporation, Northampton, Mass.). When indicated, the cells were harvested, washed twice in PBS, resuspended in dilution buffer and stored in −80° C. To prepare crude lysates the thawed preparations were vortexed with glass beads and centrifuged for 5 min 5,000×g (4° C.). The supernate was centrifuged for 20 min 14,000×g. The resulting supernate was used as “crude lysate.” SDS-PAGE was carried in 12% acrylamide, Tris-glycine gels from Invitrogen. Chameleon Duo (Li-Cor) and Rainbow RPN800E (GE Healthcare) molecular weight standards were separated on each gel alongside lysates. The proteins were transferred to nitrocellulose membrane in a semi-dry system. The membranes were probed with specific primary antibodies from Life Technologies (S6, PS6) and Li-Cor (COX IV), and then with secondary antibodies from Li-Cor. In each experiment visualization of S6, PS6 and COX IV was performed on the same membrane with Odyssey Infrared Imaging System (Li-Cor).
The effects of compound 3 observed in vitro prompted its influence on the proliferation of cultured cancer cells to be tested, namely the multiple myeloma RPMI 8226 line. […] Such relatively low EC50, as compared to in vitro determined IC50 values for peptidase activities (2-3 μM; FIG. 3A and FIG. 3B) should come to no surprise. […] The in vitro readout of single peptidase activities is a useful and convenient measure of the catalytic prowess of proteasome. However, especially in the case of allosteric regulators, it may not fully reflect the important structural and functional effects.
Referring to FIG. […] The data are averages (±SD) of three-to-five independent experiments. […]

FKBP12 = biological target: T3, FKBP12 (Homo sapiens, UniProt P62942); assay: Suppression of rapamycin inhibition of S6 phosphorylation by competing for FKBP12; format: cell-based; details: RPMI 8226, 24 hours; FK506 10 μM, compound 3 and B1 0.2 μM, with rapamycin
T3 construct: endogenous in cells; host or cells: RPMI 8226 (ATCC)
Protocol: (§2) Human multiple myeloma RPMI 8226 cells were purchased from American Type Culture Collection (ATCC; Manassas, Va.) and cultured according to ATCC specifications. […] The content of live cells was determined by excluding the Trypan Blue-stained cells. The cells were counted with TC20 Automated Cell Counter (Bio-Rad Laboratories, Hercules, Calif.) and EC50 was calculated with Origin Pro 2017 (OriginLab Corporation, Northampton, Mass.). When indicated, the cells were harvested, washed twice in PBS, resuspended in dilution buffer and stored in −80° C. To prepare crude lysates the thawed preparations were vortexed with glass beads and centrifuged for 5 min 5,000×g (4° C.). The supernate was centrifuged for 20 min 14,000×g. The resulting supernate was used as “crude lysate.” SDS-PAGE was carried in 12% acrylamide, Tris-glycine gels from Invitrogen. Chameleon Duo (Li-Cor) and Rainbow RPN800E (GE Healthcare) molecular weight standards were separated on each gel alongside lysates. The proteins were transferred to nitrocellulose membrane in a semi-dry system. The membranes were probed with specific primary antibodies from Life Technologies (S6, PS6) and Li-Cor (COX IV), and then with secondary antibodies from Li-Cor. In each experiment visualization of S6, PS6 and COX IV was performed on the same membrane with Odyssey Infrared Imaging System (Li-Cor). […]

mTOR = biological target: T4, mTOR (Homo sapiens, UniProt P42345+P62942); assay: Western blot of S6 phosphorylation in RPMI 8226 cells; format: cell-based; details: RPMI 8226, 24 hours; rapamycin 2 nM, compound 3 and B1 0.2 μM
T4 construct: endogenous in cells; host or cells: RPMI 8226 (ATCC)
Protocol: as §2

[3] = biological target: T5, native human 20 S core proteasome (Homo sapiens, UniProt P25787+P25789); details: literature; cited from earlier work
T5 construct: purified from erythrocytes; purchased Enzo Life Sciences, Inc. (Farmingdale, N.Y.); host or cells: human erythrocytes

T3 sequence (P62942 whole entry): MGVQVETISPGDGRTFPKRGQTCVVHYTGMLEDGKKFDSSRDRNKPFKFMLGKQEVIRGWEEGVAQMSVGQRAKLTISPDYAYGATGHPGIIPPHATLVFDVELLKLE

| Structure (SMILES) | IC50 (26 S proteasome) | IC50 [1] | activity at 0.2 µM [2] | suppression of rapamycin inhibition of S6 phosphorylation (FKBP12 binding) (FKBP12) | activity of mTOR (phosphorylation of S6) (mTOR) | contribution of closed forms in 20 S particles population [3] |
| --- | --- | --- | --- | --- | --- | --- |
| COc1cc(CCCOC(=O)[C@@H]2CCCCN2C(=O)C(=O)C2CCCCC2)cc(OC)c1OC (racemic) [Compound B1] | 4.6 µM | 5.8 µM | 60 to 65% | did not mimic the actions of FK506 | neither B1 nor compound 3 affected the activity of mTOR; also recorded: did not inhibit the S6 phosphorylation | – |
| CCOC(=O)[C@]1(c2ccccc2)N=C(c2ccc(OC)cc2)N(Cc2ccccc2)[C@@H]1c1ccc(NCc2ccccc2)cc1 [TCH-165] | – | – | – | – | – | induced a strong decrease in contribution of the closed forms |
